The record followed here is patent publication US20250144187A1, “COMBINATION OF HYDROLASES AND ANTI-MICROORGANISM DRUGS AND USES THEREOF” (CENTRE FOR EYE AND VISION RESEARCH LIMITED, priority 2023, published 2025).

The subject of test [1] is methicillin-resistant Staphylococcus aureus USA 300 (MRSA, ATCC-BAA1556). In words: Check board broth micro-dilution assay, auranofin with human lysozyme. Format: cell-based. As to the method:
Then, about 5.0×10^5 colony-forming units (CFUs) of methicillin-resistant Staphylococcus aures (MRSA, USA300 strain) in log phase were added into each well for overnight culture. Bacterial growth inhibition was monitored by optical density at 600 nm (OD600) and colony units in serial dilution in LB agar plate. Well without any drug served as growth control, and well without bacteria served as background control. The inhibition ratio was calculated as […]. CFUs were counted by 10-fold serial dilution in phosphate buffered saline (PBS) and 10 μl of dilutions were spotted in LB agar plate. […] Briefly, FICI=MICAB/MICA+MICBA/MICB=FICA+FICB. […] Thus, there would be a series of FICI values. In most of cases, the lowest one among these values was listed to reflect the best achieving degree of combination therapy. In terms of the lowest FICI, FICI≤0.5, 0.5<FICI<1 or FICI≥1, would indicate whether the combination has synergy, part synergy or non-synergy effects, respectively. Besides, to better highlight the inhibition degree of bacterial growth in combination therapy or identify whether combination therapy has synergy effect, results might be shown by heat-maps or line-charts containing different FICI values, although they were performed by using same 2-fold dilution method. All assays were performed in triplicate.
In general terms: Broth dilution looks for growth in wells or tubes with falling amounts of substance.

Test [2] deals with MRSA. Nature of the test: Time-killing curves, auranofin/lysozyme. Format: cell-based, Staphylococcus aureus. The following applies: for inhibition effect on growth of MRSA at exponential phase: drug alone: 0.34 μg/ml auranofin or 0.5 mg/ml lysozyme. As to the method: 2) Time-killing curves According to standard method [K. R. V. Thappeta et al., (2020) ACS Infect Dis 6: 1228-1237], over-night cultured MRSA was diluted and aliquoted into new sterile tubes at 1:1000 ratio. Then, the bacterial suspension was co-cultured with […] auranofin, 0.5 mg/ml lysozyme or their combination at 37° C. with shaking at 200 rpm. Similar bacterial suspension without any additions served as control group. Then, 20 μl of each culture was extracted at time intervals of […] and 22 hours to determine CFUs by spotting 10 μl of 10-fold dilution on the LB agar plates and incubating at 37° C. for 24 hours prior to enumeration. All assays were performed in triplicate.

The test system of test [3] is MRSA biofilm. In words: Biofilm crystal violet assay, auranofin/lysozyme. It counts as cell-based, Staphylococcus aureus. As to the method:
3) Biofilm assays According to described previously method [K. R. V. Thappeta et al., (2020) ACS infect Dis 6: 1228-1237], biofilm inhibition was assessed by using an adherence assay on 96-well tissue culture plates. Briefly, bacterial suspensions (1×10^6 (CFU/ml) were exposed to 0.34 μg/ml auranofin in LB medium in the absence and presence of 0.5 mg/ml lysozyme. LB medium with or without bacteria served as […] control group, respectively. After overnight incubation at 37° C. bacterial suspensions were removed, and the wells were gently washed twice with sterile PBS to remove exclusively non-adherent bacteria. The adherent biofilms were fixed by using 95% methanol at 60° C. for 15 minutes. Then, biofilms were stained with 1% crystal violet (100 μl/well) at 37° C. for 15 minutes, followed by gently washing with PBS to remove redundant crystal violet. Finally, the dye was solubilized with 150 μl of 95% ethanol per well at 37° C. for 30 minutes. The optical density of solution in each well was measured at 590 nm using a micro-plate reader. Herein, strong biofilm, weak biofilm and no biofilm wen defined as “ODsample≥2 ODnegative control”, “ODnegative control<ODsample<2 ODnegative control” and “ODsample≤ODnegative control”, respectively. All assays were performed in triplicate.

Test [4] has as its system MRSA. In words: Resistance development study (serial passages), auranofin/lysozyme. It counts as cell-based, Staphylococcus aureus. The following applies: combination with lysozyme compared with auranofin alone. The protocol:
4) Resistance development study. As described before [Y, Lau et al., (2020) Adv Sci 7:1902227]. MRSA at exponential phase was diluted (1:1000) into fresh LB medium containing different concentrations of auranofin, lysozyme or their combination. After 1 passage (24 hours) at 37° C., MIC of culture was determined by standard two-fold serial dilutions. Next, this culture with higher MIC was further diluted into similar LB medium but with higher concentrations of compounds for next passages. The process was repeated for 18 days. By analyzing initial MICs of auranofin or lysozyme, fold-changes in MI s of these compounds were calculated. Assays were performed in triplicate.

Test [5] has as its system MRSA. Nature of the test: Mutation frequency and prevention concentration analysis, auranofin/lysozyme. Format: cell-based, Staphylococcus aureus. From the text: 5) Mutation frequency and prevention concentration analysis.
The subject of test [6] is MRSA. In words: ATP level, auranofin/lysozyme. The following applies: 0.5 mg/ml lysozyme and 0.34 μg/ml auranofin. It counts as cell-based, Staphylococcus aureus. The protocol: 8) ATP level. […] Those without any treatment served as control group. Alter 1 hour incubation at 37° C. all bacteria were collected and washed by cold PBS for 3 times. […] Then, 20 μl of each supernatant were added white 96-well plate pre-reactivated by 100 μl of ATP test solution (Beyotime) to perform luminometer measurement.

Test [7] has as its system ARPE-19 cells. Nature of the test: Toxicity analysis of auranofin by CCK-8 kit. The following applies: uninfected cells. It counts as cell-based, human. The source says:
FIG. 10: Toxicity analysis of auranofin on ARPE-19 cells by using CCK-8 kit.
(Tetrazolium dyes change colour on reduction, which living cells bring about.)

The subject of test [8] is MRSA in ARPE-19 cells. Nature of the test: Cell-based infection model, auranofin/lysozyme. The following applies: ≥0.34 μg/ml auranofin combined with 0.5 mg/ml lysozyme.
Test [9] concerns MRSA. In words: TMT proteomics analysis and PRM validation, auranofin/lysozyme. The following applies: auranofin + lysozyme combination vs lysozyme alone, 5 hours.
Test [10] deals with MRSA. In words: Check board broth micro-dilution assay, cefdinir with lysozyme. It counts as cell-based, Staphylococcus aureus. The following applies: for effect of LTA/WTA synthesis inhibitor on cefdinir/lysozyme combination (FICI): inhibitor added into bacterial suspension. As to the method: 2) Check board broth micro-dilution assays. According to standard two-fold dilution method [Sun H et al., Nat Commun 11, 5263 (2020)], cefdinir at different concentration was added into fresh LB medium (or trypticase soy broth medium with 5% defibrinated horse blood) containing different concentration of human lysozyme in 96-wells plate. After well mixed, about 20 μl of 1.0×10^7 CFU/ml logarithmic cultures of MRSA, MRSE, Streptococcus pyogenes (S. py), Streptococcus mutans (S. mu), Enterococcus faecium (E. faecium), Enterococcus faecalis (E. faecalis) and Corynebacterium pseudodiphtheriticum (C. ps) were added into each well of the plate und co-incubated overnight, Wells without any drugs served as growth controls, and wells without bacteria served as background controls. The inhibition ratio was calculated as [1−(ODsample−ODbackground)/(ODcontrol−ODbackground)]×100%. Besides, bacterial growth inhibition was also monitored by serial dilution in LB-agar plate. CFU was counted by performing 10-fold serial dilution in PBS and then spotting 10 μl of dilutions in LB-agar plate. The MIC was determined as the lowest concentration of a drug that could inhibit the […] growth of microorganism by both visual CFU and OD600 using a microtiter plate reader. Fractional inhibitory concentration (FIC) and fractional inhibitory concentration index (FICI) values were determined by standard method. Briefly, FICI=MICAB/MICA+MICBA/MICB=FICA+FICB. […] Thus, there would be a series of FICI values. In most of Cases the lowest one among these values was listed to reflect the best achieving degree of combination therapy. In terms of the lowest FICI, FICI≤0.5, 0.5<FICI<1 or FICI≥1, would indicate the combination has synergy, part synergy or non-synergy effects, respectively.

Test [11] concerns MRSE. The description is as above. It counts as cell-based, Staphylococcus epidermidis. The following applies: lysozyme alone. The protocol:
2) Check board broth micro-dilution assays. According to standard two-fold dilution method [Sun H et al., Nat Commun 11, 5263 (2020)], cefdinir at different concentration was added into fresh LB medium (or trypticase soy broth medium with 5% defibrinated horse blood) containing different concentration of human lysozyme in 96-wells plate. After well mixed, about 20 μl of 1.0×10^7 CFU/ml logarithmic cultures of MRSA, MRSE, Streptococcus pyogenes (S. py), Streptococcus mutans (S. mu), Enterococcus faecium (E. faecium), Enterococcus faecalis (E. faecalis) and Corynebacterium pseudodiphtheriticum (C. ps) were added into each well of the plate und co-incubated overnight, Wells without any drugs served as growth controls, and wells without bacteria served as background controls. The inhibition ratio was calculated as [1−(ODsample−ODbackground)/(ODcontrol−ODbackground)]×100%. Besides, bacterial growth inhibition was also monitored by serial dilution in LB-agar plate. CFU was counted by performing 10-fold serial dilution in PBS and then spotting 10 μl of dilutions in LB-agar plate. The MIC was determined as the lowest concentration of a drug that could inhibit the […] growth of microorganism by both visual CFU and OD600 using a microtiter plate reader. Fractional inhibitory concentration (FIC) and fractional inhibitory concentration index (FICI) values were determined by standard method. […]

In test [12] the test system is MRSA. In words: Check board broth micro-dilution assay, tedizolid phosphate with lysozyme. It counts as cell-based, Staphylococcus aureus. As to the method:
(§1) 2) Check board broth micro-dilution assays. According to standard two-fold dilution method [Sun. H et al., Nat. Commun. 11, 5263 (2020) tedizolid phosphate at different concentrations were added into fresh LB medium (or trypticase soy troth medium with 5% defibrinated horse blood) containing different concentrations of human lysozyme in 96-well plate. Then, 20 μl of 1.0×10^7 CFU/ml logarithmic cultures of MRSA or MRSE were added into each well of the plate and co-incubated overnight. Drug-free LB medium in the absence or presence of bacteria served as background control and growth control group, respectively. […] Thus, there would be a series of FICI values. In most of cases, the lowest one among these values was listed to reflect the best achieving degree of combination therapy. In terms of the lowest FICI, FICI≤0.5, 0.5<FICI<1 or FICI≥1, would indicate the combination has synergy, part synergy or non-synergy effects, respectively.

The test system of test [13] is MRSE. The test is described as above. It counts as cell-based, Staphylococcus epidermis. The following applies: lysozyme alone. The protocol:
as §1

Where “and” joins values, the source holds several entries; their conditions need not be identical. Identical values can stand only once. Where only a bound is given, the exact number is not on record here.

For `CC(=O)OC[C@H]1O[C@@H]([S-])[C@H](OC(C)=O)[C@@H](OC(C)=O)[C@@H]1OC(C)=O.CCP(CC)CC.[Au+]` [auranofin, Auranofin], the “fractional inhibitory concentration index (FICI)” value in [1] (auranofin in combination with lysozyme) is 0.266. In test [2] (0.34 μg/ml auranofin + 0.5 mg/ml lysozyme, reduced from the level of 10^10), the bacterial load is reported as 10^5 CFU/ml. For the same molecule, the “inhibition effect on growth of MRSA at exponential phase” value in test [2] is on record as “few inhibitions effect”. In addition, the “biofilm-based absorbance at 590 nm, pre-biofilm stage” value in test [3] (0.34 μg/ml auranofin + 0.5 mg/ml lysozyme) was “biofilm had been absolutely removed”. The “biofilm-based absorbance at 590 nm, post-biofilm stage” value in test [3] (auranofin + lysozyme combination after biofilm had appeared) is listed as “the decrease was not observed after biofilm had appeared”. Also, in [4], the “development of auranofin resistance” value was “did suppress the development of auranofin resistance”. Besides, in [5] (0.34 μg/ml auranofin + 2 mg/ml lysozyme), the gene mutation frequency is listed as ≤ 1×10^−9. In [5] (0.34 μg/ml auranofin without lysozyme), the gene mutation frequency was ≥ 9×10^−6. Further, the ATP level result in [6] is on record as “significantly reduced”. Further, in test [7], the “IC50 of auranofin on ARPE-19 cells” value was found to be 2.21±0.34 μg/ml. Moreover, in test [8], the “drop of bacterial load in infected ARPE-19 cells” value was 10^2 fold. Also, in [8] (MOI 5), the “bacterial load in infected ARPE-19 cells” value is 10^5 CFU/ml. Also, in [9], the CopZ over-expression worked out at 21 fold, the “N-acetylmuramoyl-L-alanine amidase domain (Q2G222) overexpression” value is recorded as approximately 1.84 fold and the “protein level of walR (Q7A8E1)” value is approximately 0.68 fold.
For the molecule `CCN(CC)c1nc2c(S(=O)(=O)c3ccc(Cl)cc3)nnn2c2cc(OC)c(OC)cc12` [Targocil], the “effect of LTA/WTA synthesis inhibitor on cefdinir/lysozyme combination (FICI)” value in test [10] is recorded as “abolish the combination effect”.
Take “lysozyme: Human lysozyme (C-type) supplied by Sigma-Aldrich; hydrolase used in combination with the drugs”: the “lysozyme level to which MRSA is sensitive (MIC)” value in [1] (0.17 μg/ml auranofin used in combination) was 1.0 mg/mL; in test [1] (lysozyme alone), not below 150 mg/mL. Also, in test [2], the “inhibition effect on growth of MRSA at exponential phase” value is “few inhibitions effect”. The “minimum inhibitory concentration (MIC) of human lysozyme” value in test [10] (lysozyme alone) is > 150 mg/mL and 150 mg/mL; in test [11], more than 150 mg/mL; in test [12] (lysozyme alone) it was more than 150 mg/mL; in test [13] it was more than 150 mg/mL. Moreover, the “drop of MIC value of lysozyme” value in [10] (with cefdinir at ca. 0.75 μg/ml) was found to be 1200 folds. For the same molecule, the “MIC value of lysozyme” value amounted to 0.125 mg/mL in [10] (with cefdinir at ca. 0.75 μg/ml (1.89 μM)) and 0.1235 mg/mL in test [12] (with tedizolid phosphate at ca. 0.19 μg/ml (0.4 μM, 0.004 MIC)). Also, in [12] (with tedizolid phosphate at ca. 0.19 μg/ml), the “reduction of the MIC value of lysozyme” value came to 1200 fold.
Turning to `O=C(COC(=O)Cc1coc2ccc3ccccc3c12)Nc1nnc(-c2ccccc2)o1` [LtaS-IN-1], in [10], the “effect of LTA/WTA synthesis inhibitor on cefdinir/lysozyme combination (FICI)” value was “abolish the combination effect”.
Turning to `N#CC(C#N)=NNc1cccc(Cl)c1` [CCCP, Carbonyl cyanide m-chlorophenyl hydrazone], the “effect of ion-targeting inhibitor on FICI of tedizolid phosphate/lysozyme combination” value in [12] (cells incubated with the inhibitor) was “significant increase in FICI”.
For the molecule poly-l-lysine, the FICI in test [12] (poly-l-lysine in place of lysozyme, combined with tedizolid phosphate) is reported as 0.375.
